Each structure is given as a SMILES string.

For the experiment, the target named is T1, rat NaP2b (SLC34A2) (Rattus norvegicus, UniProt Q9JJ09).
T1 construct: host or cells: HEK293
T1 sequence (Q9JJ09 1-695): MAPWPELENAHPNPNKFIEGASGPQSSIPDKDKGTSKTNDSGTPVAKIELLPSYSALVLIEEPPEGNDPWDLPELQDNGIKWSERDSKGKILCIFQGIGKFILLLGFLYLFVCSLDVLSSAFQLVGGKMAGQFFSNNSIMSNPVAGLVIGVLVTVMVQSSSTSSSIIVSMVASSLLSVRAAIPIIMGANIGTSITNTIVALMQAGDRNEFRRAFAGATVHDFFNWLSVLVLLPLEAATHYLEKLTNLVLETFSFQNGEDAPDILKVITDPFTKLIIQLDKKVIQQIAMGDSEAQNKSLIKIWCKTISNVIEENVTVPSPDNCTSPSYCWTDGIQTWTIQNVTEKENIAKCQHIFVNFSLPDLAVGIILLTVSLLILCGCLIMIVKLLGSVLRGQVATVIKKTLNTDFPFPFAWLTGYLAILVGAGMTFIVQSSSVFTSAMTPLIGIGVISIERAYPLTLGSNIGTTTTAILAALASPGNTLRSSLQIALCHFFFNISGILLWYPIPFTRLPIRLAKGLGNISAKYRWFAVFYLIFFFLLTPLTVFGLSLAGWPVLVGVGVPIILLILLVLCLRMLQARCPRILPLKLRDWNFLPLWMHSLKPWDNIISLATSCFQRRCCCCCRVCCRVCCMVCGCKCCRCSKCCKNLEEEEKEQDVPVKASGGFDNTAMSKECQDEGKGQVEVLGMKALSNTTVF
Put plainly: Inhibition of NaP2b-mediated Pi (33P) uptake in transfected HEK293 cells, rat NaP2b. Type of experiment: cell-based. As to conditions: HEK293 cells transfected with rat NaP2b, 100 uM phosphate, 0.1 nM to 30 uM, read-out: pIC50 range for rat Nap2b (converted). As to the method: HEK293 cells were obtained from the American Type Culture collection and propagated per their instructions. Expression clones for rat and human NaP2b (SLC34A2) were obtained from Open Biosystems (Catalog numbers MRN1768-9510282, and MHS1010-99823026, respectively). The sequence of the human protein was mutated to insert a threonine after residue 37, and to introduce a N39D mutation.
Cells were seeded into 96-well plates at 25,000 cells/well and cultured overnight. Lipofectamine 2000 (Invitrogen) was used to introduce the NaP2b cDNA, and the cells were allowed to approach confluence during a second overnight incubation. […] Cells were then overlayed with either choline uptake buffer or sodium uptake buffer (14 mM Tris, 137 mM sodium chloride, 5.4 mM KCl, 2.8 mM CaCl2, 1.2 mM MgSO4, 100 uM KH2PO4, PiT-silencing agent, 1 mg/mL Bovine Serum Albumin, pH 7.4) containing 6-9 uCi/mL ^33P orthophosphoric acid (Perkin Elmer) and test compound. Each compound was tested at twelve concentrations ranging from 0.1 nM to 30 uM. Assays were run in duplicate.
Cells were lysed by addition of 20 μL 0.1% Tween 80 followed by 100 μL scintillation fluid, and counted using a TopCount (Perkin Elmer).
pIC50 (the negative log of the […]) values of the test compounds were calculated using GraphPad Prism.
Consider `O=C(O)CCSCc1cccc(C(=O)Nc2ccc(N3CCSCC3)cc2-c2cc(C(=O)NCc3cccc(C(F)(F)F)c3)ccn2)c1` [Example 27, 3-((3-((4-Thiomorpholino-2-(4-((3-(trifluoromethyl)benzyl)carbamoyl)pyridin-2-yl)phenyl)carbamoyl)benzyl)thio)propanoic acid], for which the IC50 is 1 to 7.94 µM.

With `O=C(O)CCSCc1cccc(C(=O)Nc2ccc(N3CC4CCCC4C3)cc2-c2cc(C(=O)NCc3cccc(C(F)(F)F)c3)ccn2)c1` (stereo not shown) [Example 28, 3-((3-((4-(Hexahydrocyclopenta[c]pyrrol-2(1H)-yl)-2-(4-((3-(trifluoromethyl)-benzyl)carbamoyl)pyridin-2-yl)phenyl)carbamoyl)benzyl)thio)propanoic acid], the IC50 is 1 to 7.94 µM.

Turning to `CCOc1ccc(NC(=O)c2cccc(CSCCC(=O)O)c2)c(-c2cc(C(=O)NCc3cccc(C(F)(F)F)c3)ccn2)c1` [Example 29, 3-((3-((4-Ethoxy-2-(4-((3-(trifluoromethyl)benzyl)carbamoyl)pyridin-2-yl)phenyl)carbamoyl)benzyl)thio)propanoic acid], the IC50 was 1 to 7.94 µM.

Turning to `COc1ccc(NC(=O)c2cccc(CSCCC(=O)O)c2)c(-c2cc(C(=O)NCc3cccc(C(F)(F)F)c3)ccn2)c1` [Example 30, 3-((3-((4-Methoxy-2-(4-((3-(trifluoromethyl)benzyl)carbamoyl)pyridin-2-yl)phenyl)carbamoyl)benzyl)thio)propanoic acid], the IC50 was 1 to 7.94 µM.

Take `COC1CCN(c2ccc(NC(=O)c3cccc(CSCCC(=O)O)c3)c(-c3cc(C(=O)NCc4cccc(C(F)(F)F)c4)ccn3)c2)CC1` [Example 31, 3-((3-((4-(4-Methoxypiperidin-1-yl)-2-(4-((3-(trifluoromethyl)benzyl)carbamoyl)-pyridin-2-yl)phenyl)carbamoyl)benzyl)thio)propanoic acid]: the IC50 was 10 to 31.6 µM.

Turning to `O=C(O)CCSCc1cccc(C(=O)Nc2ccc(OCC(F)(F)F)cc2-c2cc(C(=O)NCc3cccc(C(F)(F)F)c3)ccn2)c1` [Example 32], the IC50 is 10 to 31.6 µM.

As to `CC(C)COc1ccc(NC(=O)c2cccc(CSCCC(=O)O)c2)c(-c2cc(C(=O)NCc3cccc(C(F)(F)F)c3)ccn2)c1` [Example 33], the IC50 is 10 to 31.6 µM.

Regarding `COCCOc1ccc(NC(=O)c2cccc(CSCCC(=O)O)c2)c(-c2cc(C(=O)NCc3cccc(C(F)(F)F)c3)ccn2)c1` [Example 34, 3-((3-((4-(2-Methoxyethoxy)-2-(4-((3-(trifluoromethyl)benzyl)carbamoyl)pyridin-2-yl)phenyl)carbamoyl)benzyl)thio)propanoic acid], the IC50 was 10 to 31.6 µM.

For the compound `CCSc1ccc(NC(=O)c2cccc(CSCCC(=O)O)c2)c(-c2cc(C(=O)NCc3cccc(C(F)(F)F)c3)ccn2)c1` [Example 35, 3-((3-((4-(Ethylthio)-2-(4-((3-(trifluoromethyl)benzyl)carbamoyl)pyridin-2-yl)phenyl)carbamoyl)benzyl)thio)propanoic acid], the IC50 was 1 to 7.94 µM.

Regarding `O=C(O)CCSCc1cccc(C(=O)Nc2ccc(Oc3ccccc3)cc2-c2cc(C(=O)NCc3cccc(C(F)(F)F)c3)ccn2)c1` [Example 36, 3-((3-((4-Phenoxy-2-(4-((3-(trifluoromethyl)benzyl)carbamoyl)pyridin-2-yl)phenyl)carbamoyl)benzyl)thio)propanoic acid], the IC50 was 1 to 7.94 µM.

Turning to `CN(CCN1CCN(S(C)(=O)=O)CC1)Cc1cccc(C(=O)Nc2ccc(N3CCCCC3)cc2-c2cc(C(=O)NCc3cccc(C(F)(F)F)c3)ccn2)c1` [Example 39], the IC50 was 1 to 7.94 µM.

As to `CN1CCN(CCN(C)Cc2cccc(C(=O)Nc3ccc(N4CCCCC4)cc3-c3cc(C(=O)NCc4cccc(C(F)(F)F)c4)ccn3)c2)CC1` [Example 40, 2-(2-(3-((Methyl(2-(4-methylpiperazin-1-yl)ethyl)amino)methyl)benzamido)-5-(piperidin-1-yl)phenyl)-N-(3-(trifluoromethyl)benzyl)isonicotinamide], the IC50 is 10 to 31.6 µM.

Turning to `CC(=O)N1CCN(CCN(C)Cc2cccc(C(=O)Nc3ccc(N4CCCCC4)cc3-c3cc(C(=O)NCc4ccccc4)ccn3)c2)CC1` [Example 41, 2-(2-(3-(((2-(4-Acetylpiperazin-1-yl)ethyl)(methyl)amino)methyl)benzamido)-5-(piperidin-1-yl)phenyl)-N-benzylisonicotinamide], the IC50 was 10 to 31.6 µM.

Turning to `CC(C)(C)OC(=O)N1CCCN(Cc2cccc(C(=O)Nc3ccc(N4CCCCC4)cc3-c3cc(C(=O)NCc4cccc(C(F)(F)F)c4)ccn3)c2)CC1` [Example 44, tert-Butyl 4-(3-((4-(piperidin-1-yl)-2-(4-((3-(trifluoromethyl)benzyl)carbamoyl)pyridin-2-yl)phenyl)carbamoyl)benzyl)-1,4-diazepane-1-carboxylate], the IC50 is 10 to 31.6 µM.

`CN1CCCN(Cc2cccc(C(=O)Nc3ccc(N4CCCCC4)cc3-c3cc(C(=O)NCc4cccc(C(F)(F)F)c4)ccn3)c2)CC1` [Example 45, 2-(2-(3-((4-Methyl-1,4-diazepan-1-yl)methyl)benzamido)-5-(piperidin-1-yl)phenyl)-N-(3-(trifluoromethyl)benzyl)isonicotinamide]: the IC50 is 10 to 31.6 µM.

In the case of `CC(=O)NC1CCN(Cc2cccc(C(=O)Nc3ccc(N4CCCCC4)cc3-c3cc(C(=O)NCc4cccc(C(F)(F)F)c4)ccn3)c2)CC1` [Example 46, 2-(2-(3-((4-Acetamidopiperidin-1-yl)methyl)benzamido)-5-(piperidin-1-yl)phenyl)-N-(3-(trifluoromethyl)benzyl)isonicotinamide], the IC50 is 10 to 31.6 µM.

As for `CC(=O)N1CCCN(Cc2cccc(C(=O)Nc3ccc(N4CCCCC4)cc3-c3cc(C(=O)NCc4cccc(C(F)(F)F)c4)ccn3)c2)CC1` [Example 49, 2-(2-(3-((4-Acetyl-1,4-diazepan-1-yl)methyl)benzamido)-5-(piperidin-1-yl)phenyl)-N-(3-(trifluoromethyl)benzyl)isonicotinamide], the IC50 was 1 to 7.94 µM.

As for `CC(=O)N1CCN(Cc2cccc(C(=O)Nc3ccc(N4CCCCC4)cc3-c3cc(C(=O)NCc4cccc(C(F)(F)F)c4)ccn3)c2)CC1` [Example 50, 2-(2-(3-((4-Acetylpiperazin-1-yl)methyl)benzamido)-5-(piperidin-1-yl)phenyl)-N-(3-(trifluoromethyl)benzyl)isonicotinamide], the IC50 was 1 to 7.94 µM.

Regarding `COCCNC(=O)CCN(C)Cc1cccc(C(=O)Nc2ccc(N3CCCCC3)cc2-c2cc(C(=O)NCc3cccc(C(F)(F)F)c3)ccn2)c1` [Example 51, 2-(2-(3-(((3-((2-Methoxyethyl)amino)-3-oxopropyl)(methyl)amino)methyl)benzamido)-5-(piperidin-1-yl)phenyl)-N-(3-(trifluoromethyl)benzyl)isonicotinamide], the IC50 was 1 to 7.94 µM.

Consider `CN(Cc1cccc(C(=O)Nc2ccc(N3CCCCC3)cc2-c2cc(C(=O)NCc3cccc(C(F)(F)F)c3)ccn2)n1)C(=O)CN1CCOCC1` [Example 53, 6-((N-Methyl-2-morpholinoacetamido)methyl)-N-(4-(piperidin-1-yl)-2-(4-((3-(trifluoromethyl)benzyl)carbamoyl)pyridin-2-yl)phenyl)picolinamide], for which the IC50 was 1 to 7.94 µM.

For the compound `CCN(CC)c1ccc(NC(=O)c2cccc(C(=O)N(C)CCN3CCCN(C(=O)OCCOCCOCCOCCOCCOCCOCCOCCOCCOCCOCCOC)CC3)c2)c(-c2cc(C(=O)N[C@H]3CCCc4ccccc43)ccn2)c1` [Example 199, (S)-2,5,8,11,14,17,20,23,26,29,32-undecaoxatetratriacontan-34-yl 4-(2-(3-((4-(diethylamino)-2-(4-((1,2,3,4-tetrahydronaphthalen-1-yl)carbamoyl)pyridin-2-yl)phenyl)carbamoyl)-N-methylbenzamido)ethyl)-1,4-diazepane-1-carboxylate], the IC50 is 1 to 7.94 µM.

For the compound `CCN(CC)c1ccc(NC(=O)c2cccc(C(=O)N(C)CCN(C)CCOCCOCCOCCNC(=O)C(C)(C)C)c2)c(-c2cc(C(=O)NCc3cccc(C(F)(F)F)c3)ccn2)c1` [Example 346, N^1-(4-(diethylamino)-2-(4-(3-(trifluoromethyl)benzylcarbamoyl)pyridin-2-yl)phenyl)-N^3-methyl-N^3-(3,17,17-trimethyl-16-oxo-6,9,12-trioxa-3,15-diazaoctadecyl)isophthalamide], the IC50 is 1 to 7.94 µM.

These data come from patent publication US9301951B2 (Ardelyx, Inc., priority 2010, dated 2016).
